The values that follow come from US20240327454A1, “DETERGENT AND METHOD FOR PURIFYING A BIOTHERAPEUTIC” (MEDIMMUNE, LLC, priority 2020, published 2024).

In one series the test system is enveloped virus. The conditions noted are these: cited from earlier work.
A further series concerns aquatic organisms. The conditions noted are these: cited from earlier work.
Series [1] relates to XMuLV. Put plainly: Viral inactivation by 1% detergent in XMuLV-spiked BisAb cell harvest media, plaque assay (Example 1). In kind it is cell-based, murine xenotropic leukemia virus-related virus. Further details: Virus concentration: unit not given here. The conditions noted are these: for Log10 reduction value / Virus concentration: BisAb harvest media; for Virus concentration: room temperature; for viral inactivation kinetics: in words, compared to Laureth-9. The source says: The viral inactivation of four detergents was examined using a CHO-derived cell harvest material for a monovalent bispecific human IgG1 monoclonal antibody. Brij L9 (Laureth-9), Myrj S25, and Brij S20 were sourced from Croda International Plc. (East Yorkshire, United Kingdom). Polidocanol 600 (Laureth-9) was sourced from Schärer & Schläpfer AG (Rothrist, Switzerland).
(§1) Harvest media was spiked with murine xenotropic leukemia virus-related virus (XMuLV) stock prior to the detergent spike.
(§2) Conditioned cell harvest media containing a monovalent bispecific human IgG1 monoclonal antibody (BisAb) was spiked with 8.5 logs of XMuLV. A sample of the virus spiked harvest media was collected and used as a hold control to determine the rate of viral inactivation without detergent.
(§3) A 10% (w/w) stock solution was made by dissolving detergent into 50 mM Tris pH 7.4. A cell harvest sample of BisAb media spiked with XMuLV was spiked to a 1% detergent concentration using an appropriate amount of the 10% stock solution. The hold control and reaction samples were incubated at room temperature. Samples were collected at 1, 10, 60, and 120 minutes and diluted 1:50 in McCoy medium to stop the viral inactivation reaction. Diluted samples and hold control were assayed for viral concentration using a plaque assay.

A further series relates to AAV6.2. Put plainly: AAV purification on Capto AVB after cell lysis, eluate titer and infectivity. The conditions noted are these: for CaptoAVB Elu Infectivity / CaptoAVB Elu Titer: detergent cell lysis, cell paste lot A8489 (Brij-L9), A8102 (Triton X100). Here is the method:
(§4) An AAV6.2 cell paste slurry was generated and stored at −80° C. Brij L9 (Laureth-9) was sourced from Croda International Plc. (East Yorkshire, United Kingdom). Triton X-100 was sourced from Spectrum Chemical (New Brunswick, NJ). Capto AVB resin was sourced from GE Healthcare (Piscataway, NJ). COSP filters were obtained from EMD Millipore (Burlington, MA). Sartopore 2 XLG, 0.8/0.2 um filters were obtained from Sartorius Stedim Biotech GmbH (Gottingen, Germany). All the buffer salts were sourced from Avantor Performance Chemicals (Center Valley, Pennsylvania).
(§5) For detergent lysis, the AAV6.2 cell paste was diluted to a 10% slurry with 20 mM Tris, 200 mM NaCl, 2 mM MgCl2, pH 7.5. 10% (w/w) detergent stock solution was spiked into cell slurry to bring final detergent concentration to 0.5% (v/w). Benzonase was spiked to 10 U/ml into cell slurry mixture and mixed slowly at RT for 1 hour.
For freeze-and-thaw lysis, the cell paste slurry was put through 2 freeze-thaw cycles at −80° C. and RT. AAV lysate was diluted to 10% slurry with 20 mM Tris, 200 mM NaCl, 2 mM MgCl2, pH 7.5. Benzonase was spiked to 10 U/ml into cell slurry mixture and mixed slowly at RT for 1 hour.
(§6) AAV Purification was performed using a Capto AVB affinity column. Purification was controlled by Unicorn 7.0 software on an AKTA AVANT purchased from GE Healthcare (Piscataway, NJ). COSP POD filter was flushed with 20 mM Tris, 500 mM NaCl, 2 mM MgCl2, pH 7.5. 10% AAV6.2 cell lysate was clarified with COSP followed by Sartopore 2 XLG, 0.8/0.2 um filter. Capto AVB column was equilibrated with 20 mM Tris, 200 mM NaCl, 2 mM MgCl2, pH 7.5 for 3 column volumes (CV). Clarified cell lysate was loaded with residence time of 6 min. Column was re-equilibrated with 20 mM Tris, 200 mM NaCl, 2 mM MgCl2, pH 7.5 for 4 CV. Product was eluted from column with 50 mM citric acid, 500 mM NaCl, 2 mM MgCl2, pH 2.5. Eluate pH was adjusted to pH 8.0 with 1 M Tris/HCl, pH 8.0 AAV Titer was determined by centrifuging 10% lysate at 13,000 rpm for 10 min and collecting the supernatant. AAV titer was determined with in-house qPCR method.

Another series concerns AAV6.2 cell paste. Put plainly: Detergent lysis of AAV6.2 cell paste slurry, lysate AAV titer by qPCR. In kind it is cell-based. The conditions noted are these: for Lysate AAV6 Titer: 0.5% detergent, AAV6 cell paste lot A8498, 1 hour at RT. Here is the method: as §4, §5, §6
Background: In qPCR the cycle at which signal appears reflects the starting amount.

The test system of series [2] is XMuLV. Put plainly: Viral inactivation by Laureth-9 in XMuLV-spiked BisAb or BisFusion conditioned media (Example 2). In kind it is cell-based, murine xenotropic leukemia virus-related virus. Here is the method: as §1, §2, §3
A study was performed essentially as described in Example 1 to examine the viral inactivation using detergent concentrations of 1% Brij L9 (Laureth-9, sourced from Croda International Plc., East Yorkshire, United Kingdom) and 1% Polidodecanol 600 (Laureth-9, sourced from Schärer & Schläpfer AG, Rothrist, Switzerland) for CHO-derived conditioned media for BisAb and 1% or 0.1% Brij L9 for CHO-derived conditioned media for a bispecific fusion protein (BisFusion).

Where [3] appears, read: 0 min, 0.1% detergent, BisFusion.
The mark [4] stands for this setting: 10 min, 0.1% detergent, BisFusion.
Where [5] appears, read: 10 min, 1% detergent, BisFusion.
Setting [6] is: 60 min, 0.1% detergent, BisFusion.
The mark [7] stands for this setting: 60 min, 1% detergent, BisFusion.
Setting [8] is: <1 min, 0.1% detergent, BisFusion.
Setting [9] is: <1 min, 1% detergent, BisFusion.

With “polyoxyethylene (23) lauryl ether [Brij 35]”, the “effectiveness for viral inactivation” value in the series with enveloped virus (finding of Conley et al. (2017)) is “not effective for viral inactivation”.
Regarding `CC(C)(C)CC(C)(C)c1ccc(O)cc1` [octlyphenol], in the series with aquatic organisms, the endocrine disruption result is recorded as “can behave as endocrine disrupters in aquatic organisms”.
Regarding `CCCCCCCCCCCCOCCOCCOCCOCCOCCOCCOCCOCCOCCO` [Brij L9, 3,6,9,12,15,18,21,24,27-nonaoxanonatriacontan-1-ol], the Log10 reduction value in the series on XMuLV [1] (0 min) is on record as 0 Log10; in the series on XMuLV [1] (10 min), above 4.61 Log10; in the series on XMuLV [1] (60 min) it was above 4.61 Log10; in the series with XMuLV [1] (120 min), above 4.61 Log10; in the series with XMuLV [2] (setting [3]) it was 0 Log10; with XMuLV [2] (0 min, 1% detergent, BisAb), 0 Log10. Also, the Log10 reduction value in the series on XMuLV [2] (0 min, 1% detergent, BisFusion) is recorded as 0 Log10; in the series on XMuLV [2] (setting [4]), above 3.88 Log10; with XMuLV [2] (10 min, 1% detergent, BisAb), above 4.07 Log10; in the series on XMuLV [2] (setting [5]), above 3.84 Log10; in the series with XMuLV [2] (setting [6]) it was above 3.88 Log10; in the series with XMuLV [2] (60 min, 1% detergent, BisAb) it was above 4.07 Log10. The Log10 reduction value is recorded as above 3.84 Log10 with XMuLV [2] (setting [7]); above 3.88 Log10 with XMuLV [2] (setting [8]); above 4.03 Log10 with XMuLV [2] (<1 min, 1% detergent, BisAb); above 3.84 Log10 in the series with XMuLV [2] (setting [9]). Moreover, the Virus concentration in the series on XMuLV [1] (0 min) is recorded as 7.79; in the series with XMuLV [1] (10 min), below 3.18; in the series on XMuLV [1] (60 min), below 3.18; in the series with XMuLV [1] (120 min) it was below 3.18; with XMuLV [2] (setting [3]) it was 7.21; in the series with XMuLV [2] (0 min, 1% detergent, BisAb), 7.00. In addition, the Virus concentration with XMuLV [2] (0 min, 1% detergent, BisFusion) is listed as 7.21; with XMuLV [2] (setting [4]), below 2.88; in the series with XMuLV [2] (10 min, 1% detergent, BisAb) it was below 2.88; with XMuLV [2] (setting [5]), below 2.88; in the series on XMuLV [2] (setting [6]), below 2.88; in the series on XMuLV [2] (60 min, 1% detergent, BisAb), below 2.88. Moreover, the Virus concentration is reported as below 2.88 in the series on XMuLV [2] (setting [7]); below 2.88 with XMuLV [2] (setting [8]); below 2.88 in the series with XMuLV [2] (<1 min, 1% detergent, BisAb); below 2.88 in the series on XMuLV [2] (setting [9]). Also, the viral inactivation kinetics entry with XMuLV [1] is listed as “improved, desirable viral inactivation kinetics”. In addition, the “CaptoAVB Elu Infectivity” value in the series with AAV6.2 is on record as 10.5 Log10 TCID50/mL. In the series on AAV6.2, the “CaptoAVB Elu Titer” value amounted to 12.2 Log10 vg/mL. Moreover, the “impact on AAV infectivity” value in the series with AAV6.2 (in words) is “does not show any negative impact”. In addition, the “Lysate AAV6 Titer” value with AAV6.2 cell paste is listed as 11.04 Log10 vg/mL. The “cell lysis for AAV purification” value in the series with AAV6.2 cell paste (in words, compared with Triton X-100) is on record as “as effective for cell lysis for AAV purification as Triton X-100”.
As to “polyoxyethylene (20) stearyl ether [Brij S20, reference compound]”, the Log10 reduction value is on record as 0 Log10 with XMuLV [1] (0 min); 2.90 Log10 with XMuLV [1] (10 min); above 4.61 Log10 with XMuLV [1] (60 min); above 4.61 Log10 in the series with XMuLV [1] (120 min); 0.89 Log10 with XMuLV [1] (<1 min). Also, the Virus concentration with XMuLV [1] (0 min) is on record as 7.79; in the series with XMuLV [1] (10 min) it was 4.89; in the series on XMuLV [1] (60 min) it was below 3.18; in the series on XMuLV [1] (120 min) it was below 3.18; with XMuLV [1] (<1 min), 6.9. Further, the viral inactivation kinetics result in the series with XMuLV [1] is “significantly slower”.
`CCCCCCCCCCCCOCCOCCOCCOCCOCCOCCOCCOCCOCCO` [Polidodecanol 600, 3,6,9,12,15,18,21,24,27-nonaoxanonatriacontan-1-ol]: the Log10 reduction value in the series with XMuLV [1] (0 min) is on record as 0 Log10; in the series on XMuLV [1] (10 min), above 4.61 Log10; in the series with XMuLV [1] (60 min), above 4.61 Log10; in the series on XMuLV [1] (120 min), above 4.61 Log10; in the series with XMuLV [1] (<1 min) it was above 4.61 Log10; in the series with XMuLV [2] (0 min, 1% detergent, BisAb), 0 Log10. Further, the Log10 reduction value is listed as above 4.07 Log10 in the series with XMuLV [2] (10 min, 1% detergent, BisAb); above 4.07 Log10 in the series on XMuLV [2] (60 min, 1% detergent, BisAb); above 4.03 Log10 in the series with XMuLV [2] (<1 min, 1% detergent, BisAb). Moreover, the Virus concentration is recorded as 7.79 with XMuLV [1] (0 min); below 3.18 in the series on XMuLV [1] (10 min); below 3.18 in the series on XMuLV [1] (60 min); below 3.18 in the series on XMuLV [1] (120 min); 7.00 in the series on XMuLV [2] (0 min, 1% detergent, BisAb); below 2.88 with XMuLV [2] (10 min, 1% detergent, BisAb). In addition, the Virus concentration is below 2.88 with XMuLV [2] (60 min, 1% detergent, BisAb) and below 2.88 in the series with XMuLV [2] (<1 min, 1% detergent, BisAb).
Consider Triton X-100 [reference compound], for which, in the series with enveloped virus (diverse set of experimental conditions), the enveloped virus inactivation result is given as “greater than 4 logs”. Moreover, in the series on AAV6.2, the “CaptoAVB Elu Infectivity” value worked out at 9.8 Log10 TCID50/mL and the “CaptoAVB Elu Titer” value is reported as 11.8 Log10 vg/mL. Also, the “Lysate AAV6 Titer” value in the series with AAV6.2 cell paste stood at 11.03 Log10 vg/mL. Moreover, the endocrine disruption result in the series with aquatic organisms is “can behave as endocrine disrupters in aquatic organisms”.
